Source: patent publication US20240002424A1, “HEXOSAMINE COMPOUNDS AND METHODS THEREOF” (National Institute of Immunology, priority 2021, published 2024)

Experiments:
Format in all cases: cell-based, human
[1] = system: Jurkat cells; assay: NeuAz expression on the cell surface by SPAAC with DBCO-Cy5 and flow cytometry, competition with Ac4ManNAz (1c); settings: for NeuAz expression upon co-incubation with Ac4ManNAz: Ac4ManNAz (Z) 50 μM plus analogue at 10, 25, 50 μM; for NeuAz expression upon co-incubation with Ac4ManNAz / reduction in NeuAz expression upon co-incubation: 24 h; for reduction in NeuAz expression upon co-incubation: 0-50 μM with 1c 50 μM, simultaneous addition
Procedure: FIG. 5 illustrates competitive processing by compounds of the present invention (ManNAc compounds). ManNAc compounds competitively reduce the expression of N-azidoacetyl-D-neuraminic acid (NeuAz)-carrying sialoglycans through the metabolic processing of Ac4ManNAz. Jurkat (human T-lymphoma) cells were incubated with Ac4ManNAz (Z) (50 μM) alone, co-incubated with GL-2, GL-3, MA-2, or MA-3 (at various concentrations such as 10,
25, and 50 μM) for 24 h. Expression of N-azidoacetyl-D-neuraminic acid (NeuAz) on the cell surface sialoglycans was estimated using strain-promoted azide-alkyne cycloaddition (SPAAC) with DBCO-Cy5 and analyzed by flow cytometry. […] GL-2 was used for comparative study and the structure of this compound is as below.
Jurkat cells (3.0×10^5 cells/mL; 2.5 mL per well in 6-well plates) in complete medium were treated with either vehicle (D) or Compound 1c; Untreated Jurkat cells, without addition of vehicle, were also included as additional controls. Cells were harvested at 48 h, washed thrice with PBS (3×0.5 mL) (3000×g, 2.0 min). Prior to the last wash cells were counted and were aliquoted to 1.0×10^6 cells per sample in 1.5 mL microcentrifuge tubes and centrifuged. The cells were gently resuspended in PBS ([…]) and treated with DBCO-Cy5 ([…]) and incubated at 37° C. (on a Torrey-Pines dry heating bath with mild shaking). After one hour, the cells were washed using FSB (0.5 mL, 3000×g, 2.0 min, room temperature), resuspended in PBS (250 mL), treated with PI (2.5 mg/mL), and analyzed using BD FACSCanto and FACSDiva Version 6.1.3. The cells were gated for PI-negative population for 10,000 events. Two replicate samples were prepared for each conditions and each sample was counted twice.
Estimation of NeuAz expression by 1c in the presence of peracetylated ManNAc analogues: Jurkat cells (3.0×10^5 cells/mL in 3.0 mL per well in 6-well plates) were incubated with (i) D, (ii) 1a, 1b, 1c, or 1d alone (50 mM) or (iii) 1a, 1b, or 1d (50 mM) in combination with 1c (50 mM). After 24 h, cells were harvested, washed using FSB, aliquoted to 5.0×10^5 cells per sample, and processed as mentioned above for estimation of NeuAz expression using DBCO-Cy5 ([…]). Experiments using HL-60 cells were performed using the same procedure. […]
Effect of GlcNAc and ManNAc analogues on NeuAz expression: Jurkat cells were treated with 1a, 1b, 2a, or 2b (10, 25, and 50 mM for each analogue) in combination with 1c (50 mM). Cells treated with 1c (50 mM) alone were considered as a reference. After 24 h, cells were harvested, processed, labelled with DBCO-Cy5 ([…]), and analysed by flow cytometry as mentioned above.
In order to evaluate the metabolism, Jurkat (human T-lymphoma) cells were selected and incubated with ManNAc analogues either alone (50 μM) or in combination with 1c (50 μM) for 48 h. Expression of NeuAz on cell surface was estimated by flow cytometry through the copper-free bio-orthogonal strain-promoted azide-alkyne cycloaddition (SPAAC) reaction using dibenzocyclooctyne-Cy5 (DBCO-Cy5). The conditions for click reaction were optimized for various concentrations of DBCO-Cy5 and time course of SPAAC reaction in Jurkat cells. Based on the optimization results, incubation time of 30 min at 37° C. for 5.0×10^5 cells (pre-incubated with 1c for 48 h) with 20 μM of DBCO-Cy5 in 100 μL total volume for experiments with ManNAc analogues was chosen. […] In order to test the dose-dependency of this inhibitory effect on NeuAz expression and to establish competitive metabolic processing, Jurkat cells were first treated with either 1a or 1b (0-50 μM) followed by addition of 1c (50 μM) at 12 h and estimation of NeuAz at 48 h. As expected, the suppression of NeuAz expression was substantially higher when added with a 12 h delay compared to simultaneous addition, in a dose-dependent manner. […] By contrast simultaneous addition resulted only in a 10% reduction of NeuAz for both 1a and 1b (FIG. 6C and FIG. 7B).

[2] = system: HL-60 cells; assay: Total and glycoside bound sialic acids by periodate-resorcinol assay; settings: 100 μM, 48 h
Procedure: Total sialic acids were measured following reported procedures. HL-60 cells (3.0×10^5 cells/mL in 10 mL complete medium in 10 cm diameter Petri dishes) were incubated with D, 1a, 1b, 1c, 1d, 1e, 1f, 1g, 2a, or 2b (100 mM each), along with untreated (U) controls. After 48 h, cells were harvested, washed with PBS (3×5.0 mL; 3000×g, for 2.0 min), aliquoted to 2×10^6 cells per sample and resuspended in PBS (150 mL) in 1.5 mL microcentrifuge tubes. Cells were lyzed by three freeze-thaw cycles and the total lysates were subjected to periodate-resorcinol assay. Briefly, lysates (150 mL) were treated with 0.4 M aqueous periodic acid (6.67 mM) or (2.5 mL) and incubated either on ice for 15 min (for measurement of total sialic acids) or at 37° C. for 1.0 h (for measurement of glycoconjugate bound sialic acids). About 10 mL of reagent cocktail was prepared using 6% w/v of aqueous resorcinol (1.0 mL), 2.5 mM copper (II) sulfate (1.0 mL), 44% of concentrated hydrochloric acid (4.4 mL), and water (3.6 mL). The mixture was then treated with the reagent cocktail (250 mL per sample), boiled at 100° C. for 10 min, rapidly quenched in an ice-bath and treated with tert-butanol (250 mL). The contents were centrifuged and the supernatants were aliquoted (200 mL) into 96-well plates and the absorbance at 630 nm was measured. At least three replicates were prepared for each condition.

[3] = system: HL-60 cells; assay: Cell surface sialyl-Lewis-X (CD15s) by anti-CD15s (CSLEX1) flow cytometry; settings: 50 μM, 24 h
Procedure: Effect of ManNAc analogues on the expression of sialyl-Lewis-X and Lewis-X: HL-60 cells (3.0×10^5 cells/mL in 2.0 mL complete medium in 6 well plate) were treated with D (vehicle), 1a, 1b, 1c, 1d, 1e, 1f, or 1g (50 PM), along with untreated (U) control. After 24 h, cells were harvested and washed with PBS (3×0.5 mL, 3000×g, 3.0 min at room temperature). Prior to last wash, cells were counted using Z2 coulter counter and aliquoted at 2.5×10^5 cells per sample and stained with either mouse anti-human CD15s (CSLEX1) (1.25 μg/mL) or mouse anti-human CD15 (HI98) (2.5 μg/mL) in HEPES/CaCl2) buffer (30 mM HEPES, 110 mM NaCl, 10 mM KCl, 2 mM MgCl2, 10 mM glucose, 1.5 mM CaCl2) containing 0.1% bovine serum albumin, pH 7.3) (total volume of 100 μL) for 30 min at 4° C. Cells were washed with HEPES/CaCl2 buffer (2×0.5 mL) and stained with AlexaFluor488-conjugated anti-mouse IgM (2.5 μg/mL) (for both CD15s and CD15) in 100 μL HEPES/CaCl2 for 30 min at 4° C. Cells were washed with HEPES/CaCl2 buffer (2×0.5 mL), resuspended in PBS (0.2 mL), treated with PI (2.5 μg/ml) and analysed by BD FACSVerse. Samples treated with (i) isotype antibodies followed by secondary antibody and (ii) secondary antibody alone were prepared as controls. Single Cells were gated for PI-negative population for 10,000 events and analysed by flow cytometry. Two replicate samples were prepared for each condition and each sample was counted twice. Three independent experiments were performed. Data was analysed using FlowJo V10. For plotting graph and calculation of significant probability ‘p’ values, two-way ANOVA with Dunnett's multiple comparison tests was employed in GraphPad Prism 8.
Time course of CD15s expression: HL-60 cells (3.0×10^5 cells/mL in 2.5 mL complete medium in 6-well plates) were incubated with D, 1a, 1b, or 1d (50 mM). At each time point, from day 1 to day 6, the cells were harvested from the entire contents of the well, washed, and aliquoted to 5.0×10^5 cells per sample, and immuno-stained using anti-CD15s (CSLEX1) antibody as mentioned above. On day 3, 4, and 5 complete media (1.0 mL) was added to each remaining well in order to compensate for media exhaustion. No contents were removed from the well during the period.

[4] = system: HL-60 cells; assay: NeuAz expression by SPAAC with DBCO-Cy5 and flow cytometry, competition with 1c; settings: 50 μM with 1c 50 μM, 24 h
Procedure: Estimation of NeuAz expression by 1c in the presence of peracetylated ManNAc analogues: Jurkat cells (3.0×10^5 cells/mL in 3.0 mL per well in 6-well plates) were incubated with (i) D, (ii) 1a, 1b, 1c, or 1d alone (50 mM) or (iii) 1a, 1b, or 1d (50 mM) in combination with 1c (50 mM). After 24 h, cells were harvested, washed using FSB, aliquoted to 5.0×10^5 cells per sample, and processed as mentioned above for estimation of NeuAz expression using DBCO-Cy5 ([…]). Experiments using HL-60 cells were performed using the same procedure.
Having confirmed metabolic acceptability in Jurkat cells, the compounds were tested on HL-60 (human acute myeloid leukemia) cells which are a reliable model for neutrophil adhesion. The effect on competitive suppression of NeuAz expression was studied using 1c as a reporter. HL-60 cells were treated with 1c either alone (50 μM) or in combination with ManNAc analogues (50 μM), including the straight chain derivatives, for 24 h followed by DBCO-Cy5 ligation. […] The decreasing ability of linear alkyl moieties (1d-1g), as a function of chain length, for suppression of NeuAz expression is in contrast to the cycloalkyl moieties. […] Similarly, 1a induced a reduction of 40% compared to only a 15% reduction by 1f.

[5] = system: HL-60 cells; assay: Cell density as a measure of proliferation/cytotoxicity; settings: 100 μM, cell density measured at 24, 48, and 72 h

| Structure (SMILES) | NeuAz expression upon co-incubation with Ac4ManNAz [1] | ratio of total sialic acids to glycoside bound sialic acids vs untreated cells [2] | increase in binding of CSLEX1 antibody (sLeX) compared to controls [3] | reduction in NeuAz expression upon co-incubation [1] | glycoside bound sialic acid levels (in words) [2] | total sialic acid levels (in words) [2] | decrease in cell density [5] | further results |
| --- | --- | --- | --- | --- | --- | --- | --- | --- |
| CC(=O)OC[C@H]1OC(OC(C)=O)[C@H](NC(=O)C2CCC2)[C@@H](OC(C)=O)[C@@H]1OC(C)=O (mixture of isomers) [Compound 2b, (3R,4R,5S,6R)-6-(acetoxymethyl)-3-(cyclobutanecarboxamido)tetrahydro-2H-pyran-2,4,5-triyl triacetate] | not | – | – | – | – | – | – | – |
| CCC(=O)N[C@@H]1[C@@H](OC(C)=O)O[C@H](COC(C)=O)[C@@H](OC(C)=O)[C@@H]1OC(C)=O [Compound 1e, 1,3,4,6-tetra-O-acetyl-2-(1-propanoyl)amino-2-deoxy-α-D-mannopyranose] | – | higher ratios of free sialic acid | ~2.5 fold | – | – | – | – | increase in glycoside bound sialic acid levels [2]: ~10%; increase in total sialic acid levels vs untreated cells [2]: 2.3 fold; NeuAz expression with respect to 1c alone (100%) [4]: 65%; suppression of NeuAz expression (in words) [4]: significant suppression |
| CC(=O)OC[C@H]1OC(OC(C)=O)[C@@H](NC(=O)C2CCC2)[C@@H](OC(C)=O)[C@@H]1OC(C)=O (mixture of isomers) [Compound 1b, (3S,4R,5S,6R)-6-(acetoxymethyl)-3-(cyclobutanecarboxamido)tetrahydro-2H-pyran-2,4,5-triyl triacetate] | reduced competitively in a dose-dependent manner | – | – | – | – | – | – | – |
| CC(=O)OC[C@H]1O[C@@H](OC(C)=O)[C@H](NC(=O)C2CC2)[C@@H](OC(C)=O)[C@@H]1OC(C)=O [Compound 2a, 1,3,4,6-tetra-O-acetyl-2-cyclopropanoylamino-2-deoxy-β-D-glucopyranose] | not | lower ratios | – | negligible reduction | comparable to untreated cells | comparable to untreated cells | ~10% | – |
| CC(=O)OC[C@H]1OC(OC(C)=O)[C@H](NC(=O)C2CCC2)[C@@H](OC(C)=O)[C@@H]1OC(C)=O (stereo partly drawn) [Compound 2b, (3R,4R,5S,6R)-6-(acetoxymethyl)-3-(cyclobutanecarboxamido)tetrahydro-2H-pyran-2,4,5-triyl triacetate] | – | lower ratios | – | negligible reduction | comparable to untreated cells | comparable to untreated cells | ~10% | – |
| CC(=O)OC[C@H]1O[C@H](OC(C)=O)[C@@H](NC(=O)CN=[N+]=[N-])[C@@H](OC(C)=O)[C@@H]1OC(C)=O [Compound 1c, 1,3,4,6-tetra-O-acetyl-2-azidoacetylamino-2-deoxy-α-D-mannopyranose] | – | – | 1.4 fold | – | comparable to untreated cells | – | ~10% | NeuAz expression / DBCO-Cy5 signal, compound alone ([1]; 50 μM alone, 48 h): robust expression of NeuAz |
